Results from patent US7446079B2, “Perfumes for rinse-off systems” (Givaudan Fragrances Corporation, priority 2005, dated 2008).
Values joined by “and” are separate entries in the source; they are usually repeats but may differ in a detail not shown here. Equal values may be shown once. Read-outs that look alike come from different tables or passages of the source.

Legend:
[1] = GC-MS headspace release profile of Tropical Fruit perfume in shampoo, 1/100 dilution in water; assay type: physicochemical
Procedure: A 10 gram sample of formulation and fragrance was added to an empty 1000 ml pyrex beaker. This beaker was then filled with 1000 ml of 120 F tap water. Beaker with diluted shampoo sample was then immediately placed into a semi-enclosed plexiglass chamber.
Headspace Sampling: Once beaker was placed into chamber a Carboxan SPME field fiber was held at the top-side opening of the chamber over the beaker containing the sample. […] […] Top of plexiglass chamber was held open for entire 5 minutes of headspace sampling.

[2] = in water, cited from earlier work; for exp ODT (ppb) water: experimental values from the Booleans database

Structure (SMILES): C=CC(C)(O)CCC=C(C)CC (mixture of isomers) [ETHYL LINALOOL]
- GC Abundance ([1]; headspace at 20 seconds): 5000
- GC Abundance ([1]; headspace at 30 seconds): 10000
- GC Abundance ([1]; headspace at 40 seconds): 10000
- GC Abundance ([1]; headspace at 50 seconds): 10000

Structure (SMILES): CC=Cc1ccc(O)c(OC)c1 [1-Hydroxy-2-methoxy-4-propenylbenzene]
- exp ODT (ppb) water [2]: 30-40 ppb

Structure (SMILES): CCCCCCCC=O [1-Octanal]
- exp ODT (ppb) water [2]: 30 ppb

Structure (SMILES): COc1cc(C=O)ccc1O [4-Hydroxy-3-methoxybenzaldehyde]
- exp ODT (ppb) water [2]: 25-58 ppb and 20-200 ppb

Structure (SMILES): Cc1ccc(C(C)C)c(O)c1 [5-Methyl-2-isopropylphenol]
- exp ODT (ppb) water [2]: 400 ppb

Structure (SMILES): CC(C)=CCCC(C)CCCC(C)C=O (stereo not shown) [ADOXAL, 2,6,10-Trimethyl-9-undecenal]
- GC Abundance ([1]; headspace at 40 seconds): 300
- GC Abundance ([1]; headspace at 50 seconds): 3000

Structure (SMILES): CCCCCC1CCC(=O)O1 (stereo not shown) [ALDEHYDE C-18]
- GC Abundance ([1]; headspace at 20 seconds): 2000
- GC Abundance ([1]; headspace at 30 seconds): 2000
- GC Abundance ([1]; headspace at 40 seconds): 4000
- GC Abundance ([1]; headspace at 50 seconds): 4000

Structure (SMILES): C=CCOC(=O)CCCCC [ALLYL CAPROATE]
- ODT (ppb) ([2]; Table 9): less than 50 ppb
- ODT (ppb) ([2]; Table 11): less than 50 ppb
- ODT (ppb) ([2]; Table 13): less than 50 ppb

Structure (SMILES): C=CCOC(=O)CCC1CCCCC1 [ALLYL CYCLOHEXYL PROPIONATE]
- ODT (ppb) ([2]; Table 9): less than 50 ppb
- ODT (ppb) ([2]; Table 11): less than 50 ppb
- ODT (ppb) ([2]; Table 13): less than 50 ppb
- GC Abundance ([1]; headspace at 40 seconds): 7000
- GC Abundance ([1]; headspace at 50 seconds): 10000

Structure (SMILES): C=CCOC(=O)CCCCCC [ALLYL HEPTOATE]
- GC Abundance ([1]; headspace at 20 seconds): 4000
- GC Abundance ([1]; headspace at 30 seconds): 10000
- GC Abundance ([1]; headspace at 40 seconds): 12000
- GC Abundance ([1]; headspace at 50 seconds): 12000

Structure (SMILES): CC1(C)CCC[C@]2(C)[C@H]3CCO[C@]3(C)CC[C@@H]12 [AMBROXAN]
- GC Abundance ([1]; headspace at 50 seconds): 1000

Structure (SMILES): CC/C(=C\CC1CC=C(C)C1(C)C)CO (stereo not shown) [BACDANOL]
- GC Abundance ([1]; headspace at 40 seconds): 100
- GC Abundance ([1]; headspace at 50 seconds): 5000

Structure (SMILES): CC(=O)OCc1ccccc1 [BENZYL ACETATE]
- GC Abundance ([1]; headspace at 20 seconds): 12000
- GC Abundance ([1]; headspace at 30 seconds): 17000
- GC Abundance ([1]; headspace at 40 seconds): 18000
- GC Abundance ([1]; headspace at 50 seconds): 18000

Structure (SMILES): OCc1ccccc1 [BENZYL ALCOHOL]
- GC Abundance ([1]; headspace at 40 seconds): 50
- GC Abundance ([1]; headspace at 50 seconds): 100

Structure (SMILES): CCC(=O)OCc1ccccc1 [BENZYL PROPIONATE]
- GC Abundance ([1]; headspace at 20 seconds): 2000
- GC Abundance ([1]; headspace at 30 seconds): 6000
- GC Abundance ([1]; headspace at 40 seconds): 6000
- GC Abundance ([1]; headspace at 50 seconds): 6000

Structure (SMILES): CCCCOC(C)=O [Butyl acetate]
- exp ODT (ppb) water [2]: 44-88 ppb

Structure (SMILES): Cc1ccc2c(c1)OCC(=O)CO2 [CALONE]
- GC Abundance ([1]; headspace at 50 seconds): 1000

Structure (SMILES): CC/C=C\CCO [CIS-3-HEXEN-1-OL]
- GC Abundance ([1]; headspace at 20 seconds): 14000
- GC Abundance ([1]; headspace at 30 seconds): 14000
- GC Abundance ([1]; headspace at 40 seconds): 14000
- GC Abundance ([1]; headspace at 50 seconds): 14000

Structure (SMILES): CC/C=C\CCOC(C)=O [CIS-3-HEXENYL ACETATE]
- ODT (ppb) ([2]; Table 9): less than 50 ppb
- ODT (ppb) ([2]; Table 11): less than 50 ppb
- ODT (ppb) ([2]; Table 13): less than 50 ppb
- GC Abundance ([1]; headspace at 20 seconds): 5000
- GC Abundance ([1]; headspace at 30 seconds): 14000
- GC Abundance ([1]; headspace at 40 seconds): 14000
- GC Abundance ([1]; headspace at 50 seconds): 14000

Structure (SMILES): CC/C=C\CCOC(=O)c1ccccc1O [CIS-3-HEXENYL SALICYLATE]
- ODT (ppb) ([2]; Table 9): less than 50 ppb
- ODT (ppb) ([2]; Table 11): less than 50 ppb
- ODT (ppb) ([2]; Table 13): less than 50 ppb

Structure (SMILES): CC(C)=CCCC(C)CCO (stereo not shown) [CITRONELLOL AJ, FCC, CITRONELLOL]
- GC Abundance ([1]; headspace at 20 seconds): 7000
- GC Abundance ([1]; headspace at 30 seconds): 7000
- GC Abundance ([1]; headspace at 40 seconds): 7000
- GC Abundance ([1]; headspace at 50 seconds): 7000

Structure (SMILES): CC(C)=CCCC(C)CC#N (stereo not shown) [CITRONELLYL NITRILE]
- ODT (ppb) ([2]; Table 9): less than 50 ppb
- ODT (ppb) ([2]; Table 11): less than 50 ppb
- ODT (ppb) ([2]; Table 13): less than 50 ppb

Structure (SMILES): C=CCOC(=O)COC1CCCCC1 [CYCLOGALBANATE]
- ODT (ppb) ([2]; Table 9): less than 50 ppb
- ODT (ppb) ([2]; Table 11): less than 50 ppb
- ODT (ppb) ([2]; Table 13): less than 50 ppb

Structure (SMILES): CC=CC(=O)C1=C(C)C=CCC1(C)C [DAMASCENONE, 1-(2,6,6-Trimethylcyclohexa-1,3-dienyl)-2-buten-1-one]
- exp ODT (ppb) water [2]: 0.002 ppb
- GC Abundance ([1]; headspace at 50 seconds): 1000

Structure (SMILES): CCC(C)(O)CCC=C(C)C (stereo not shown) [DIHYDROLINALOOL]
- GC Abundance ([1]; headspace at 20 seconds): 3000
- GC Abundance ([1]; headspace at 30 seconds): 3000
- GC Abundance ([1]; headspace at 40 seconds): 3000
- GC Abundance ([1]; headspace at 50 seconds): 3000

Structure (SMILES): C=CC(C)CCCC(C)(C)O (stereo not shown) [DIHYDROMYRCENOL]
- GC Abundance ([1]; headspace at 10 seconds): 500
- GC Abundance ([1]; headspace at 20 seconds): 15000
- GC Abundance ([1]; headspace at 30 seconds): 15000
- GC Abundance ([1]; headspace at 40 seconds): 15000
- GC Abundance ([1]; headspace at 50 seconds): 15000

Structure (SMILES): CC(=O)OC(C)(C)Cc1ccccc1 [DIMETHYL BENZYL CARBINYL ACETATE]
- GC Abundance ([1]; headspace at 30 seconds): 2000
- GC Abundance ([1]; headspace at 40 seconds): 8000
- GC Abundance ([1]; headspace at 50 seconds): 8000

Structure (SMILES): CC1=CCC(/C=C\C(C)C(C)O)C1(C)C (stereo not shown) [EBANOL]
- ODT (ppb) ([2]; Table 9): less than 50 ppb
- ODT (ppb) ([2]; Table 11): less than 50 ppb
- ODT (ppb) ([2]; Table 13): less than 50 ppb

Structure (SMILES): CCOC(=O)CC(C)=O [ETHYL ACETOACETATE]
- ODT (ppb) ([2]; Table 9): less than 50 ppb
- ODT (ppb) ([2]; Table 11): less than 50 ppb
- ODT (ppb) ([2]; Table 13): less than 50 ppb

Structure (SMILES): CCCC(=O)OCC [ETHYL BUTYRATE]
- ODT (ppb) ([2]; Table 9): less than 50 ppb
- ODT (ppb) ([2]; Table 11): less than 50 ppb
- ODT (ppb) ([2]; Table 13): less than 50 ppb
- exp ODT (ppb) water [2]: 1 ppb
- GC Abundance ([1]; headspace at 10 seconds): 2800
- GC Abundance ([1]; headspace at 20 seconds): 2800
- GC Abundance ([1]; headspace at 30 seconds): 2800
- GC Abundance ([1]; headspace at 40 seconds): 2000
- GC Abundance ([1]; headspace at 50 seconds): 800
